Laboratory results from ChEMBL document CHEMBL4118287, “Polysaccharide deacetylases serve as new targets for the design of inhibitors against Bacillus anthracis and Bacillus cereus” (Bioorg Med Chem, 2018).
Converted amounts (≈) assume the structure as drawn. The source made the active and inactive calls. The rule behind the calls is not given here.

What was measured:
Bacillus anthracis [1] = experiment: Inhibition of Bacillus anthracis 7702 BA1977 assessed as induction of lysozyme sensitivity at 10 to 50 uM incubated for 250 mins under shaking condition measured every 30 mins
Bacillus anthracis [2] = experiment: Inhibition of Bacillus anthracis 7702 BA1977 assessed as induction of lysozyme sensitivity at 50 uM incubated for 250 mins under shaking condition measured every 30 mins
[3] = molecular target: T1, Peptidoglycan-N-acetylglucosamine deacetylase BC_1974 (Bacillus cereus (strain ATCC 14579 / DSM 31 / JCM 2152 / NBRC 15305 /NCIMB 9373 / NRRL B-3711), UniProt Q81EJ6); experiment: Inhibition of recombinant Bacillus cereus BC1974 expressed in Escherichia coli using GlcNAc5 as substrate measured after 5 mins by fluorescamine based fluorescence assay
T1 sequence (Q81EJ6 whole entry): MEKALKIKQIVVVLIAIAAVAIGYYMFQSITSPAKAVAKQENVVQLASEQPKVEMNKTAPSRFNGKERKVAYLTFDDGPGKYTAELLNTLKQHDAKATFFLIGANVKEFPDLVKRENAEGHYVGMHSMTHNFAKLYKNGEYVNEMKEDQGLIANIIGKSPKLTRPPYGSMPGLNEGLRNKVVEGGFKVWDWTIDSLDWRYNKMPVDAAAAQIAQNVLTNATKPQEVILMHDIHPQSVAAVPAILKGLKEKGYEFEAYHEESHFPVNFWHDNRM

[4] = molecular target: T2, Peptidoglycan-N-acetylglucosamine deacetylase BC_1960 (Bacillus cereus (strain ATCC 14579 / DSM 31 / JCM 2152 / NBRC 15305 /NCIMB 9373 / NRRL B-3711), UniProt Q81EK9); experiment: Inhibition of recombinant Bacillus cereus BC1960 expressed in Escherichia coli using GlcNAc5 as substrate measured after 10 mins by fluorescamine based fluorescence assay
T2 sequence (Q81EK9 whole entry): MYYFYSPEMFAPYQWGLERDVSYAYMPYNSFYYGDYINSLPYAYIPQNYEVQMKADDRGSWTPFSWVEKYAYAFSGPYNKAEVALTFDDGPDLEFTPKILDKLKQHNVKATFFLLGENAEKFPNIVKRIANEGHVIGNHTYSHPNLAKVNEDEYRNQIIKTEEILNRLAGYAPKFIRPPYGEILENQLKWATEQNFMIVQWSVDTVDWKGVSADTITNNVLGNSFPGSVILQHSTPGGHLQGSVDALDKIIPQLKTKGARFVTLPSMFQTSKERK

[5] = molecular target: T1, Peptidoglycan-N-acetylglucosamine deacetylase BC_1974; experiment: Competitive inhibition of recombinant Bacillus cereus BC1974 expressed in Escherichia coli using varying levels of GlcNAc5 as substrate measured after 5 mins in presence of fluorescamine by Line-weaver burk plot analysis; conditions: read-out: Ki(app)
[6] = molecular target: T2, Peptidoglycan-N-acetylglucosamine deacetylase BC_1960; experiment: Competitive inhibition of recombinant Bacillus cereus BC1960 expressed in Escherichia coli using varying levels of GlcNAc5 as substrate measured after 10 mins in presence of fluorescamine by Line-weaver burk plot analysis; conditions: read-out: Ki(app)
Bacillus cereus [7] = experiment: Antibacterial activity against Bacillus cereus ATCC 14579 measured after 16 hrs in absence of lysozyme; format: functional; conditions: ATCC 14579, 16 h
Bacillus anthracis [8] = experiment: Antibacterial activity against Bacillus anthracis 7702 measured after 16 hrs in absence of lysozyme; format: functional; conditions: Bacillus anthracis, 7702, 16 h
Bacillus cereus [9] = experiment: Bactericidal activity against Bacillus cereus ATCC 14579 measured after 72 hrs in absence of lysozyme; format: functional; conditions: ATCC 14579, 72 h
Bacillus anthracis [10] = experiment: Bactericidal activity against Bacillus anthracis 7702 measured after 72 hrs in absence of lysozyme; format: functional; conditions: Bacillus anthracis, 7702, 72 h
Bacillus cereus [11] = experiment: Antibacterial activity against Bacillus cereus ATCC 14579 measured after 16 hrs in presence of lysozyme; format: functional; conditions: ATCC 14579, 16 h
Bacillus anthracis [12] = experiment: Antibacterial activity against Bacillus anthracis 7702 measured after 16 hrs in presence of lysozyme; format: functional; conditions: Bacillus anthracis, 7702, 16 h
Bacillus cereus [13] = experiment: Bactericidal activity against Bacillus cereus ATCC 14579 measured after 72 hrs in presence of lysozyme; format: functional; conditions: ATCC 14579, 72 h
Bacillus anthracis [14] = experiment: Bactericidal activity against Bacillus anthracis 7702 measured after 72 hrs in presence of lysozyme; format: functional; conditions: Bacillus anthracis, 7702, 72 h
Bacillus cereus [15] = experiment: Ratio of MBC to MIC for Bacillus cereus ATCC 14579 measured after 16 hrs in absence of lysozyme; format: functional
Bacillus anthracis [16] = experiment: Ratio of MBC to MIC for Bacillus anthracis 7702 measured after 16 hrs in absence of lysozyme; format: functional
Bacillus cereus [17] = experiment: Ratio of MBC to MIC for Bacillus cereus ATCC 14579 measured after 16 hrs in presence of lysozyme; format: functional
Bacillus anthracis [18] = experiment: Ratio of MBC to MIC for Bacillus anthracis 7702 measured after 16 hrs in presence of lysozyme; format: functional
Bacillus cereus [19] = experiment: Antibacterial activity against Bacillus cereus ATCC 14579 assessed as production of longer chains of daughter cells at 40 ug/ml incubated 16 hrs under shaking condition by scanning electron microscopic analysis; format: functional, organism-based
[20] = compound: O=C(NO)c1ccc(-c2cccc3ccccc23)cc1; experiment: Competitive inhibition of recombinant Bacillus cereus BC1974 expressed in Escherichia coli assessed as substrate Km at 20 uM using varying levels of GlcNAc5 as substrate measured after 5 mins in presence of fluorescamine by Line-weaver burk plot analysis
[21] = compound: O=C(NO)c1ccc(-c2cccc3ccccc23)cc1; experiment: Competitive inhibition of recombinant Bacillus cereus BC1974 expressed in Escherichia coli assessed as substrate Km at 40 uM using varying levels of GlcNAc5 as substrate measured after 5 mins in presence of fluorescamine by Line-weaver burk plot analysis

## O=C(NO)c1cccc(-c2ccccc2)c1
Bacillus anthracis [1]
  inhibition: inactive

## O=C(NO)c1cccc(Oc2ccccc2)c1
Bacillus anthracis [1]
  inhibition: inactive

## O=C(NO)c1ccc(-c2cccc3ccccc23)cc1
Bacillus anthracis [2]
  inhibition: Active
[3]
  IC50: 43.3 µM
[4]
  IC50: 132 µM
[5]
  Ki: 8.7 µM
[6]
  Ki: 66 µM
Bacillus cereus [7]
  MIC: 6.58 µg/mL (≈ 25 µM)
Bacillus anthracis [8]
  MIC: 7.89 µg/mL (≈ 30 µM)
Bacillus cereus [9]
  MBC: 8.23 µg/mL (≈ 31.3 µM)
Bacillus anthracis [10]
  MBC: 8.23 µg/mL (≈ 31.3 µM)
Bacillus cereus [11]
  MIC: 5.26 µg/mL
Bacillus anthracis [12]
  MIC: 6.58 µg/mL
Bacillus cereus [13]
  MBC: 8.23 µg/mL
Bacillus anthracis [14]
  MBC: 8.23 µg/mL
Bacillus cereus [15]
  Ratio: <4
Bacillus anthracis [16]
  Ratio: <4
Bacillus cereus [17]
  Ratio: <4
Bacillus anthracis [18]
  Ratio: <4
Bacillus cereus [19]
  Activity: Active

## O=C(NO)c1cccc2ccccc12
Bacillus anthracis [1]
  inhibition: inactive

B1: Peptidoglycan-N-acetylglucosamine deacetylase BC_1974 (Bacillus cereus (strain ATCC 14579 / DSM 31 / JCM 2152 / NBRC 15305 /NCIMB 9373 / NRRL B-3711)), Q81EJ6 (protein)
chain: MEKALKIKQIVVVLIAIAAVAIGYYMFQSITSPAKAVAKQENVVQLASEQPKVEMNKTAPSRFNGKERKVAYLTFDDGPGKYTAELLNTLKQHDAKATFFLIGANVKEFPDLVKRENAEGHYVGMHSMTHNFAKLYKNGEYVNEMKEDQGLIANIIGKSPKLTRPPYGSMPGLNEGLRNKVVEGGFKVWDWTIDSLDWRYNKMPVDAAAAQIAQNVLTNATKPQEVILMHDIHPQSVAAVPAILKGLKEKGYEFEAYHEESHFPVNFWHDNRM
[20]
  Km: 22.8 µM
[21]
  Km: 42 µM
